Reference: patent US12623942B2, “Method for extracting salts and temperature- regenerated extracting composition” (ADIONICS, priority 2016, dated 2026)

Legend:
[1] = Selective extraction from a mixture of NaCl, CaCl2, SrCl2 and BaCl2; details: 0.1 Mol/L CEM2 in ASM2/ASM1 60/40 by volume, RT
Procedure: A brine containing a mixture of NaCl, CaCl2, SrCl2 and BaCl2 is made as described above. The dissolved salt concentrations are indicated in table VIII in mMol/L. The extraction was carried out a second time with changed divalent salt concentrations.
The extracting composition consists of 0.1 Mol/L of CEM2 and of a mixture of two ASMs. This mixture is composed of ASM2 which is usually referred to as [3,5-Bis(Trifluoromethyl)benzyl Alcohol] (35TFMBnOH) of CAS #: 32707-89-4, up to 60% by volume, and of ASM1, referred to as [3-(Trifluoromethyl)benzyl Alcohol](3TFMBnOH), of molecular formula C8H7F3O of MW=176.14 g/Mol and of CAS #: 349-75-7, up to 40% by volume, both serving as a fluidizing agent and as an ASM given its liquid form.
The extraction is carried out as described in example 1 and at room temperature.

[2] = Extraction isotherms of CaCl2 at room temperature and 80° C.; details: 0.1M CEM2 + 1M ASM9 in 12ClPh, Org./Water = 1
Procedure: Concerning the extraction or back extraction assays at a higher temperature, in particular at 60° C. or at 80° C., a magnetic stirring (at 500 revolutions per minute), for 2 hours, is carried out with an indirect thermostatically-controlled heating in a metal mold on a hotplate.
This series of examples aims to establish two extraction isotherms of CaCl2 at 20° C. and at 80° C. for an extracting composition including 0.1 Mol/L of CEM2, combined with 1 Mol/L of ASM9; the whole dissolved in 1,2-dichlorobenzene.
After carrying out the 7 specific extractions (duplicated) of salts, the amounts of extracted cations in relative molar percentage before and after extraction at room temperature and at water/extracting formulation iso-volume are indicated in table IV: […]
The same series of extractions was then carried out at 80° C. to give table V as follows: […]

CCN(CC)C(=O)COc1c2cc(C(C)(C)C)cc1Cc1cc(C(C)(C)C)cc(c1OCC(=O)N(CC)CC)Cc1cc(C(C)(C)C)cc(c1OCC(=O)N(CC)CC)Cc1cc(C(C)(C)C)cc(c1OCC(=O)N(CC)CC)Cc1cc(C(C)(C)C)cc(c1OCC(=O)N(CC)CC)Cc1cc(C(C)(C)C)cc(c1OCC(=O)N(CC)CC)C2 [CEM2, 4-tert-butyl-Calix[6]arene hexakis(N,N-diethylacetamide)]
Final Concentration Sr^2+ ([1]; Table IX, initial 9.17): 0 mmol/L | % extraction Sr^2+ ([1]; Table IX, initial 9.17 mMol/L): 100% | Final Concentration Ca^2+ ([1]; Table IX, initial 9.25): 0 mmol/L | % extraction Ca^2+ ([1]; Table IX, initial 9.25 mMol/L): 100% | Final Concentration Ba^2+ ([1]; Table IX, initial 9.32): 0 mmol/L | % extraction Ba^2+ ([1]; Table IX, initial 9.32 mMol/L): 100% | Final Concentration Na^+ ([1]; Table IX, initial 196.04): 195.9835 mmol/L | % extraction Na^+ ([1]; Table IX, initial 196.04 mMol/L): 0% | ANIONS Cl− Final Concentration ([1]; Table IX, initial 245.4): 203.16 mmol/L | Final Concentration Sr^2+ ([1]; Table VIII, initial 4.29): 0 mmol/L | % extraction Sr^2+ ([1]; Table VIII, initial 4.29 mMol/L): 100% | Final Concentration Ba^2+ ([1]; Table VIII, initial 4.69): 0 mmol/L | % extraction Ba^2+ ([1]; Table VIII, initial 4.69 mMol/L): 100% | Final Concentration Ca^2+ ([1]; Table VIII, initial 29.13): 0.4916 mmol/L | % extraction Ca^2+ ([1]; Table VIII, initial 29.13 mMol/L): 98% | Final Concentration Na^+ ([1]; Table VIII, initial 193.52): 199.4775 mmol/L | % extraction Na^+ ([1]; Table VIII, initial 193.52 mMol/L): 0% | ANIONS Cl− Final Concentration ([1]; Table VIII, initial 257.74): 213.38 mmol/L | Extraction rate at 80° C., CaCl2 ([2]; 0.01M): 11% | Extraction rate at 80° C., CaCl2 ([2]; 0.02M): 16% | Extraction rate at 80° C., CaCl2 ([2]; 0.03M): 18% | Extraction rate at 80° C., CaCl2 ([2]; 0.04M): 17% | Extraction rate at 80° C., CaCl2 ([2]; 0.1M): 18% | Extraction rate at 80° C., CaCl2 ([2]; 0.2M): 16% | Extraction rate at 80° C., CaCl2 ([2]; 0.4M): 10% | Extraction rate at room temperature (RT), CaCl2 ([2]; 0.01M): 39% | Extraction rate at room temperature (RT), CaCl2 ([2]; 0.02M): 42% | Extraction rate at room temperature (RT), CaCl2 ([2]; 0.03M): 41% | Extraction rate at room temperature (RT), CaCl2 ([2]; 0.04M): 40% | Extraction rate at room temperature (RT), CaCl2 ([2]; 0.1M): 34% | Extraction rate at room temperature (RT), CaCl2 ([2]; 0.2M): 27% | Extraction rate at room temperature (RT), CaCl2 ([2]; 0.4M): 16%
